Reference: the supplement of paper PMC10307832

Legend:
Experiment in all cases: relative viability (nuclei count vs DMSO), 5 days (fraction); higher = more cells survive
[1] = compound: CC1=CC=C(C=C1)C(=O)CN2C3=C(CCCC3)SC2=N [Pifithrin_alpha] + N=C(N)NC(=N)NCCc1ccccc1 [Phenformin] (partner 250 µM)
Procedure, shortened: (§1)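 Lung cancer cell lines were seeded in 1536-well plates and dosed by pin tool the next day, with either a single drug or a fixed anchor-drug dose combined with five library-drug doses (not always all listed) spaced in √10 steps. Five days later, one step fixed the cells and stained their nuclei (final 0.05% Triton X-100, 1% formaldehyde, 1 ug/ml Hoechst), and nuclei were counted on 4× images. Relative viability is the nuclei count in treated wells divided by the count in vehicle wells, and each value is the median of duplicate plates.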

[2] = compound: CC1=CC=C(C=C1)C(=O)CN2C3=C(CCCC3)SC2=N [Pifithrin_alpha] + Nc1ncn([C@H]2C[C@H](O)[C@@H](CO)O2)c(=O)n1 [Decitabine] (partner 2 µM)
Procedure, shortened: as §1

[3] = compound: CNC(=O)c1ccccc1Sc1ccc2c(/C=C/c3ccccn3)n[nH]c2c1 [Axitinib] + Cc1nc(NC(=O)N2CCC[C@H]2C(N)=O)sc1-c1ccnc(C(C)(C)C(F)(F)F)c1 [Alpelisib] (partner 2 µM)
Procedure, shortened: as §1

[4] = compound: Nc1nc(Nc2ccc3c(c2)CC[C@@H](N2CCCC2)CC3)nn1-c1cc2c(nn1)-c1ccccc1CCC2 [Bemcentinib] + CS(=O)(=O)CCNCc1ccc(-c2ccc3ncnc(Nc4ccc(OCc5cccc(F)c5)c(Cl)c4)c3c2)o1 [Lapatinib] (partner 2 µM)
Procedure, shortened: as §1

Cell Line | relative viability ([1]; first compound 1 µM) | relative viability ([1]; first compound 3.162 µM) | relative viability ([1]; first compound 10 µM) | relative viability ([1]; first compound 31.62 µM) | relative viability ([1]; first compound 100 µM) | relative viability ([2]; first compound 1 µM) | relative viability ([2]; first compound 3.162 µM) | relative viability ([2]; first compound 10 µM) | relative viability ([2]; first compound 31.62 µM) | relative viability ([2]; first compound 100 µM) | relative viability ([3]; first compound 0.005 µM) | relative viability ([3]; first compound 0.01581 µM) | relative viability ([3]; first compound 0.05 µM) | relative viability ([3]; first compound 0.1581 µM) | relative viability ([3]; first compound 0.5 µM) | relative viability ([4]; first compound 0.04 µM) | relative viability ([4]; first compound 0.1265 µM) | relative viability ([4]; first compound 0.4 µM) | relative viability ([4]; first compound 1.265 µM) | relative viability ([4]; first compound 4 µM)
NCI-H2009 | 0.483 | 0.467 | 0.451 | 0.345 | 0.422 | 0.361 | 0.349 | 0.404 | 0.344 | 0.409 | 1.21 | 1.2 | 1.13 | 1.2 | 1.29 | 0.93 | 1.09 | 0.956 | 0.954 | 0.957
NCI-H1944 | 0.165 | 0.209 | 0.191 | 0.166 | 0.22 | 0.406 | 0.461 | 0.39 | 0.337 | 0.343 | 0.797 | 0.827 | 0.855 | 0.854 | 0.868 | 0.794 | 0.909 | 0.817 | 0.883 | 0.887
SW 1573 | 0.357 | 0.39 | 0.436 | 0.37 | 0.346 | 0.516 | 0.449 | 0.509 | – | 0.587 | 0.766 | 0.954 | 0.783 | 0.774 | 0.738 | 0.976 | 1.03 | 1.18 | 0.961 | 1.09
NCI-H1975 | 0.394 | 0.38 | 0.373 | 0.337 | 0.364 | 0.663 | 0.339 | 0.306 | 0.311 | 0.279 | 0.777 | 0.73 | 0.766 | 0.667 | 0.74 | 0.962 | 1.02 | 0.894 | 0.79 | 0.853
NCI-H661 | 0.24 | 0.29 | 0.292 | 0.308 | 0.282 | 0.536 | 0.591 | 0.587 | 0.542 | 0.469 | 0.613 | 0.509 | 1.02 | 0.862 | 0.511 | 0.484 | 0.431 | 0.491 | 0.567 | 0.469
UMC-11 | 0.312 | 0.337 | 0.322 | 0.287 | 0.303 | 0.551 | 0.601 | 0.597 | 0.525 | 0.595 | 1.08 | 0.871 | 0.959 | 1.03 | 1.16 | 0.88 | 1.16 | 1.06 | 0.868 | 0.975
NCI-H520 | 0.579 | 0.554 | 0.566 | – | 0.581 | 0.595 | 0.481 | 0.578 | 0.397 | 0.507 | 0.923 | 0.951 | 0.91 | 0.784 | 0.899 | 0.855 | 0.943 | 1.08 | 0.768 | 1.05
COR-L23 | 0.465 | 0.46 | 0.426 | – | 0.509 | 0.412 | 0.399 | 0.404 | – | 0.328 | 0.77 | 0.857 | 0.78 | 0.83 | 1.06 | 1.18 | 0.997 | 1.14 | 1.05 | 1.02
NCI-H2023 | 0.521 | 0.485 | 0.456 | – | 0.389 | 0.237 | 0.211 | 0.23 | 0.201 | 0.242 | 0.696 | 0.615 | 0.551 | 0.54 | 0.682 | 0.739 | 0.866 | 0.868 | 0.808 | 0.874
NCI-H1650 | – | 0.446 | 0.333 | 0.273 | 0.349 | 0.382 | 0.442 | 0.593 | 0.32 | 0.406 | – | – | – | – | – | 0.7 | 0.817 | 0.74 | 0.921 | 0.79
NCI-H1648 | – | – | – | – | – | 0.478 | 0.597 | 0.464 | 0.406 | 0.496 | – | – | – | – | – | – | – | – | – | –
NCI-H1563 | 0.622 | 0.706 | 0.643 | 0.601 | 0.616 | – | – | – | – | – | 1.04 | 0.916 | 0.951 | 0.892 | 0.986 | 0.907 | 0.887 | 1.04 | 0.976 | 0.958
CAL-12T | 0.604 | 0.558 | 0.533 | – | 0.457 | – | – | – | – | – | 1.35 | 1.38 | 1.01 | 1.26 | 1.32 | 0.556 | 0.598 | 0.599 | 0.597 | 0.652
SW 900 | 0.519 | 0.605 | 0.715 | 0.569 | 0.393 | 0.395 | 0.381 | 0.423 | 0.389 | 0.447 | – | – | – | – | – | – | – | – | – | –
NCI-H1623 | 0.556 | 0.619 | 0.556 | 0.465 | 0.561 | – | – | – | – | – | – | – | – | – | – | – | – | – | – | –
NCI-H2342 | 0.484 | 0.622 | 0.543 | 0.585 | 0.553 | 0.685 | 0.779 | 0.744 | 0.64 | 0.678 | – | – | – | – | – | – | – | – | – | –
NCI-H1299 | – | – | – | – | – | – | – | – | – | – | 0.987 | 1.01 | 1.06 | 1.06 | 1.1 | 0.991 | 0.995 | 0.962 | 0.938 | 0.978
NCI-H522 | 0.736 | 0.63 | 0.65 | 0.673 | 0.693 | 0.681 | 0.722 | 0.693 | 0.673 | 0.579 | – | – | – | – | – | – | – | – | – | –
ChaGo-K-1 | 0.485 | 0.5 | 0.491 | 0.387 | 0.472 | 0.491 | 0.533 | 0.515 | 0.407 | 0.496 | – | – | – | – | – | – | – | – | – | –
EBC-1 | – | – | – | – | – | – | – | – | – | – | 0.904 | 0.863 | 0.806 | 0.738 | 1.07 | 0.203 | 0.189 | 0.302 | 0.204 | 0.221
Calu-6 | – | – | – | – | – | – | – | – | – | – | 0.847 | 0.997 | 1.02 | 1.01 | 1.18 | 1.02 | 1.25 | 1.34 | 1.13 | 1.11
NCI-H441 | 0.893 | 0.988 | 1.15 | – | 0.994 | 0.233 | 0.294 | 0.212 | – | 0.301 | 0.79 | 0.72 | 0.965 | 0.561 | 0.852 | – | – | – | – | –
NCI-H1703 | – | – | – | – | – | – | – | – | – | – | 0.264 | 0.214 | 0.186 | 0.171 | 0.243 | – | 1.18 | 1.24 | 1.17 | 1.13
